From patent US10590121B2, “Kinase inhibitors and methods for making and using” (Rigel Pharmaceuticals, Inc., priority 2017, dated 2020)

Key:
[1] = tested on: LPS induced IL-23 (p19/p40) in DC cells differentiated from human PBMC; test: IL23-p19 ELISA, dendritic cells (DC differentiated from human PBMC), IFNγ primed, LPS stimulated; format: cell-based; settings: human PBMC-derived dendritic cells, 1 μg/ml LPS, 18 hours, 10 pt
Summary of the method: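 Human PBMC-derived DCs (GM-CSF 100 ng/ml + IL-4 20 ng/ml, 7 days) were primed 24 h with IFNγ 50 ng/ml, pre-incubated 1 h with compound, then stimulated 18 h with LPS 1 μg/ml at 37° C. Supernatant IL-23 was measured by sandwich chemiluminescent ELISA (anti-p19 capture, anti-p40 detection); cytotoxicity was checked by CellTiter-Glo.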

[2] = tested on: LPS induced IL23p19 in THP-1 cells; test: LPS Induced IL23p19 in THP-1 Cells (with IFNγ Primed) Assay; format: cell-based; settings: Homo sapiens; THP-1 cells primed with IFNγ 50 ng/mL, 1 μg/mL LPS, 18 hours, 10 pt; read-out: IL23-p19 ELISA, THP1-IFNy, LPS, 10 pt EC50
Summary of the method: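 THP-1 cells were primed with IFNγ (50 ng/mL, ~18 h), pre-incubated 1 h with compound, then stimulated 18 h with 1 μg/mL LPS at 37° C. Supernatant IL-23p19 was measured by chemiluminescent sandwich ELISA, and EC50 was fitted. Toxicity was checked on the remaining cells with Cell Titer Glo.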

| EC50 [2] [nM] | Structure (SMILES) | EC50 [1] [nM] |
| --- | --- | --- |
| 306 | O=C(Nc1cc(CN2CCOCC2)ccc1N1CCCCC1)c1csc(-c2cn[nH]c2)n1 [I-62, N-(5-(morpholinomethyl)-2-(piperidin-1-yl)phenyl)-2-(1H-pyrazol-4-yl)thiazole-4-carboxamide] | 311 |
| 150 | O=C(Nc1cc(CC(=O)N2CCOCC2)ccc1N1CCCCC1)c1cccc(-c2cn[nH]c2)n1 [I-63, N-(5-(2-morpholino-2-oxoethyl)-2-(piperidin-1-yl)phenyl)-6-(1H-pyrazol-4-yl)picolinamide] | 160 |
| 3680 | O=C(Nc1cc(CC(=O)N2CCOCC2)ccc1N1CCCCC1)c1ccc(-c2cn[nH]c2)o1 [I-64, N-(5-(2-morpholino-2-oxoethyl)-2-(piperidin-1-yl)phenyl)-5-(1H-pyrazol-4-yl)furan-2-carboxamide] | 1320 |
| 195 | O=C(Nc1cc(CC(=O)N2CCOCC2)ccc1N1CCCCC1)c1csc(-c2cn[nH]c2)n1 [I-65, N-(5-(2-morpholino-2-oxoethyl)-2-(piperidin-1-yl)phenyl)-2-(1H-pyrazol-4-yl)thiazole-4-carboxamide] | 124 |
| 92.4 | O=C(Nc1cc(CCN2CCOCC2)ccc1N1CCCCC1)c1cccc(-c2cn[nH]c2)n1 [I-66, N-(5-(2-morpholinoethyl)-2-(piperidin-1-yl)phenyl)-6-(1H-pyrazol-4-yl)picolinamide] | 41.8 |
| 307 | O=C(Nc1cc(CCN2CCOCC2)ccc1N1CCCCC1)c1ccc(-c2cn[nH]c2)o1 [I-67, N-(5-(2-morpholinoethyl)-2-(piperidin-1-yl)phenyl)-5-(1H-pyrazol-4-yl)furan-2-carboxamide] | 480 |
| 62.5 | O=C(Nc1cc(CCN2CCOCC2)ccc1N1CCCCC1)c1csc(-c2cn[nH]c2)n1 [I-68, N-(5-(2-morpholinoethyl)-2-(piperidin-1-yl)phenyl)-2-(1H-pyrazol-4-yl)thiazole-4-carboxamide] | 47.6 |
| 2630 | CN(CCN1CCOCC1)c1ccc(NC(=O)c2cccc(-c3cn[nH]c3)n2)c(N2CCCCC2)c1 [I-69, N-(4-(methyl(2-morpholinoethyl)amino)-2-(piperidin-1-yl)phenyl)-6-(1H-pyrazol-4-yl)picolinamide] | 2820 |
| 1440 | CN(CCN1CCOCC1)c1ccc(NC(=O)c2ccc(-c3cn[nH]c3)o2)c(N2CCCCC2)c1 [I-70, N-(4-(methyl(2-morpholinoethyl)amino)-2-(piperidin-1-yl)phenyl)-5-(1H-pyrazol-4-yl)furan-2-carboxamide] | 1920 |
| 19300 | CN(CCN1CCOCC1)c1ccc(NC(=O)c2csc(-c3cn[nH]c3)n2)c(N2CCCCC2)c1 [I-71, N-(4-(methyl(2-morpholinoethyl)amino)-2-(piperidin-1-yl)phenyl)-2-(1H-pyrazol-4-yl)thiazole-4-carboxamide] | 2280 |
| 870 | O=C(Nc1ccc(NCCN2CCOCC2)cc1N1CCCCC1)c1cccc(-c2cn[nH]c2)n1 [I-72, N-(4-((2-morpholinoethyl)amino)-2-(piperidin-1-yl)phenyl)-6-(1H-pyrazol-4-yl)picolinamide] | 1840 |
| 82.7 | O=C(Nc1ccc(NCCN2CCOCC2)cc1N1CCCCC1)c1ccc(-c2cn[nH]c2)o1 [I-73, N-(4-((2-morpholinoethyl)amino)-2-(piperidin-1-yl)phenyl)-5-(1H-pyrazol-4-yl)furan-2-carboxamide] | 175 |
| 51.4 | O=C(Nc1ccc(NCCN2CCOCC2)cc1N1CCCCC1)c1csc(-c2cn[nH]c2)n1 [I-74, N-(4-((2-morpholinoethyl)amino)-2-(piperidin-1-yl)phenyl)-2-(1H-pyrazol-4-yl)thiazole-4-carboxamide] | 104 |

Further lines, the compound ahead of its results:

| Structure (SMILES) | EC50 [2] [nM] | EC50 [1] [nM] |
| --- | --- | --- |
| O=C(Nc1ccc(C(=O)N2CCOCC2)cc1N1CCCCC1)c1csc(-c2cn[nH]c2)n1 [I-47, N-(4-(morpholine-4-carbonyl)-2-(piperidin-1-yl)phenyl)-2-(1H-pyrazol-4-yl)thiazole-4-carboxamide] | 164 | 2460 |
| O=C(Nc1ccc(CN2CCOCC2)cc1N1CCCCC1)c1cccc(-c2cn[nH]c2)n1 [I-48, N-(4-(morpholinomethyl)-2-(piperidin-1-yl)phenyl)-6-(1H-pyrazol-4-yl)picolinamide] | 177 | 468 |
| O=C(Nc1ccc(CN2CCOCC2)cc1N1CCCCC1)c1ccc(-c2cn[nH]c2)o1 [I-49, N-(4-(morpholinomethyl)-2-(piperidin-1-yl)phenyl)-5-(1H-pyrazol-4-yl)furan-2-carboxamide] | 1270 | 2960 |
| O=C(Nc1ccc(CN2CCOCC2)cc1N1CCCCC1)c1csc(-c2cn[nH]c2)n1 [I-50, N-(4-(morpholinomethyl)-2-(piperidin-1-yl)phenyl)-2-(1H-pyrazol-4-yl)thiazole-4-carboxamide] | 130 | 71.7 |
| O=C(Nc1ccc(CC(=O)N2CCOCC2)cc1N1CCCCC1)c1cccc(-c2cn[nH]c2)n1 [I-51, N-(4-(2-morpholino-2-oxoethyl)-2-(piperidin-1-yl)phenyl)-6-(1H-pyrazol-4-yl)picolinamide] | 65.6 | 154 |
| O=C(Nc1ccc(CC(=O)N2CCOCC2)cc1N1CCCCC1)c1ccc(-c2cn[nH]c2)o1 [I-52, N-(4-(2-morpholino-2-oxoethyl)-2-(piperidin-1-yl)phenyl)-5-(1H-pyrazol-4-yl)furan-2-carboxamide] | 1060 | 3170 |
| O=C(Nc1ccc(CC(=O)N2CCOCC2)cc1N1CCCCC1)c1csc(-c2cn[nH]c2)n1 [I-53, N-(4-(2-morpholino-2-oxoethyl)-2-(piperidin-1-yl)phenyl)-2-(1H-pyrazol-4-yl)thiazole-4-carboxamide] | 167 | 408 |
| O=C(Nc1ccc(CCN2CCOCC2)cc1N1CCCCC1)c1cccc(-c2cn[nH]c2)n1 [I-54, N-(4-(2-morpholinoethyl)-2-(piperidin-1-yl)phenyl)-6-(1H-pyrazol-4-yl)picolinamide] | 93 | 163 |
| O=C(Nc1ccc(CCN2CCOCC2)cc1N1CCCCC1)c1csc(-c2cn[nH]c2)n1 [I-56, N-(4-(2-morpholinoethyl)-2-(piperidin-1-yl)phenyl)-2-(1H-pyrazol-4-yl)thiazole-4-carboxamide] | 2370 | 9560 |
| O=C(Nc1cc(C(=O)N2CCOCC2)ccc1N1CCCCC1)c1cccc(-c2cn[nH]c2)n1 [I-57, N-(5-(morpholine-4-carbonyl)-2-(piperidin-1-yl)phenyl)-6-(1H-pyrazol-4-yl)picolinamide] | 498 | 1150 |
| O=C(Nc1cc(C(=O)N2CCOCC2)ccc1N1CCCCC1)c1ccc(-c2cn[nH]c2)o1 [I-58, N-(5-(morpholine-4-carbonyl)-2-(piperidin-1-yl)phenyl)-5-(1H-pyrazol-4-yl)furan-2-carboxamide] | 1500 | 5600 |
| O=C(Nc1cc(C(=O)N2CCOCC2)ccc1N1CCCCC1)c1csc(-c2cn[nH]c2)n1 [I-59, N-(5-(morpholine-4-carbonyl)-2-(piperidin-1-yl)phenyl)-2-(1H-pyrazol-4-yl)thiazole-4-carboxamide] | 253 | 294 |
| O=C(Nc1cc(CN2CCOCC2)ccc1N1CCCCC1)c1ccc(-c2cn[nH]c2)o1 [I-61, N-(5-(morpholinomethyl)-2-(piperidin-1-yl)phenyl)-5-(1H-pyrazol-4-yl)furan-2-carboxamide] | 767 | 3840 |
